According to patent US8518965B2, “Compositions and methods for treating cancer” (Trustees of Dartmouth College, priority 2009, dated 2013):
Like-named read-outs stand apart in the source and are kept apart here. Marks after values point to notes of the source that are not given here.

Tests used:
[1] = tested on: HCT116 human colon cancer cells; test: Colony formation assay, HCT116 cells; format: cell-based; conditions: 72 hours with compound, colonies counted after 24 days (Example 9), read-out: IC50
Experimental: (§1) NCI/ADR-RES human breast cancer cells (500 cells), HCT116 human colon cancer cells (400 cells) or SF 295 human glioblastoma cells (1000 cells) were plated in 60 mm Petri dishes containing 2.7 ml of medium (modified McCoy's 5a medium containing 10% fetal bovine serum and 100 units/ml penicillin and 100 μg/ml streptomycin). The cells were incubated in a CO2 incubator at 37° C. for 5 hours for attachment to the bottom of Petri dishes. Compounds were prepared fresh in medium at ten times the final concentration, and then 0.3 ml of this stock solution was added to the 2.7 ml of medium in the dish. The cells were then incubated with compounds for 72 hours at 37° C. At the end of incubation, the compound-containing media were decanted, the dishes were rinsed with 4 ml of Hank's Balance Salt Solution (HBSS), 5 ml of fresh medium was added, and the dishes were returned to the incubator for colony formation. The cell colonies were counted using a colony counter after incubation for 14 days for NCI/ADR-RES cells and 10 days for HCT116 cells and SF 295 cells. Cell survival was calculated and the IC50 values (the drug concentration producing 50% inhibition of colony formation) were determined for each tested compound.
Four hundred HCT116 cells were plated in 60 mm Petri dishes containing 2.7 ml of medium (modified McCoy's 5a medium containing 10% fetal bovine serum and 100 units/ml penicillin and 100 μg/ml streptomycin). The cells were incubated in a CO2 incubator at 37° C. for 5 hours for attachment to the bottom of Petri dishes. Compounds were prepared fresh in medium at ten times the final concentration, and then 0.3 ml of this stock solution was added to the 2.7 ml of medium in the dish. The cells were then incubated with drugs for 72 hours at 37° C. At the end of incubation the compound-containing media were decanted, the dishes were rinsed with 4 ml of Hank's Balance Salt Solution (HBSS), 5 ml of fresh medium was added, and the dishes were returned to the incubator for colony formation. HCT116 cell colonies were counted using a colony counter after […] of incubation. Cell survival was calculated and IC50 values were determined for each compound tested.

[2] = tested on: SF 295 human glioblastoma cells; test: Colony formation assay, SF 295 cells; format: cell-based; conditions: for Killing / inhibition of the growth of SF 295 human glioblastoma cells (in words): Example 10; for IC50: Homo sapiens, SF 295 cells, 72 hours with compound, colonies counted after 10 days (Example 10), read-out: IC50
Experimental: as §1
One thousand SF 295 cells were plated in 60 mm Petri dishes containing 2.7 ml of medium (modified McCoy's 5a medium containing 10% fetal bovine serum and 100 units/ml penicillin and 100 μg/ml streptomycin). The cells were incubated in a CO2 incubator at 37° C. for 5 hours for attachment to the bottom of Petri dishes. Compounds were prepared fresh in medium at ten times the final concentration, and then 0.3 ml of this stock solution was added to the 2.7 ml of medium in the dish. The cells were then incubated with the compounds for 72 hours at 37° C. At the end of incubation, the compound-containing media were decanted, the dishes were rinsed with 4 ml of Hank's Balance Salt Solution (HBSS), 5 ml of fresh medium was added, and the dishes were returned to the incubator for colony formation. After incubation for 10 days, the cell colonies were counted using a colony counter. Cell survival was calculated and the values of IC50 were determined for each compound tested.

[3] = tested on: normal C3H/HeN mice; test: Maximum tolerated dose (MTD40) in normal mice; conditions: suspension formulation, single intraperitoneal injection, 40 days
Experimental: The MTD40 (maximum tolerated dose at day 40) values were determined on normal C3H/HeN mice using standard procedures. […] The result of this exercise was two dosages, one apparently nonlethal and the other lethal, if severe and irreversible toxicity occurred and euthanasia was required. Six mice were dosed at each dosage. If no severe and irreversible toxicity occurred at the lower dosage and at least one with severe and irreversible toxicity at the higher dose, then the lower dose was considered to be the MTD.
Compounds were administered to C3H/HeN mice by intraperitoneal injection (5% alcohol, 5% CREMOPHOR® EL, and 90% saline, 0.5 ml/20 gram, single injection). Drug toxicity was evaluated on mice checked daily for 40 days. The toxicity parameters reported were the MTD40. […] At the end of experiment, all mice were euthanized.
The toxicity parameters reported were the MTD40. At the end of experiment, all mice will be euthanized.

[4] = State of stock and injection solutions in water + co-solvents; format: physicochemical
Experimental: (§2) The solubility of D11B in various combinations of solvents was also analyzed. […] For the analysis of co-solvents, stock solutions were prepared by dissolving D11B in a corresponding solvent. Stock solutions of D11B in dimethylsulfoxide (DMSO) were prepared at 25° C., and stock solutions of D11B in PEG-400, CREMOPHOR® EL and Polysorbate 80 were prepared at 100° C. Injection solutions, in water (0.3 mg/ml), were prepared by dropwise addition of the stock solution to a required volume of vigorously stirred hot water (80° C.).
Additional solubility determinations were carried out with D11B×2AH in water+co-solvents. For this analysis, stock solutions were prepared by dissolving D11B×2AH in a corresponding solvent. Stock solutions of D11B×2AH in DMSO were prepared at 25° C. and stock solutions of D11B×2AH in PEG-400 were prepared at 100° C.
Injection solutions in water (0.3 mg/ml) were prepared by dropwise addition of each stock solution to a required volume of vigorously stirred water.

[5] = Solubility in solvents and buffers; format: physicochemical
Experimental: Characterization of D11B. The solubility of D11B in different solvents was analyzed (Table 1).
as §2
The solubility of D11B×2AH in DMSO, PEG-400, EtOH, and buffer was determined (Table 7).

[6] = Homo sapiens, HCT-116, HCT116 cells

## c1cc(Nc2ccc(Oc3ccc(Nc4ccncc4)cc3)cc2)ccn1 [Compound 244B]
other
  melting point: 263 to 264 °C
[1]; HCT116 cells
  IC50: 3340 nM

## c1ccc2c(Nc3ccc(Oc4ccc(Nc5c6ccccc6nc6ncccc56)cc4)cc3)c3cccnc3nc2c1 [Compound 254B]
other
  melting point: 338 to 340 °C
[1]; HCT116 cells
  IC50: 722 nM

## c1cc(Nc2ccc(Oc3ccc(Nc4ccncc4)cc3)cc2)ccn1 [Compound D244]
[1]; [6]
  IC50: 4220 nM

## c1ccc2c(Nc3ccc(Oc4ccc(Nc5ccnc6ccccc56)cc4)cc3)ccnc2c1 [Compound D245B]
[2]
  Killing / inhibition of the growth of SF 295 human glioblastoma cells (in words): effective
  IC50: 133 nM
[3]
  Values of MTD40: 25 mg/kg
[1]; HCT116 cells
  IC50: 79 nM
[1]; [6]
  IC50: 122 nM

## c1ccc2c(Nc3ccc(Oc4ccc(Nc5c6ccccc6nc6ncccc56)cc4)cc3)c3cccnc3nc2c1 [Compound D254]
[1]; HCT116 cells
  IC50: 1460 nM

## c1ccc2c(c1)Cc1c-2nc2ccccc2c1Nc1ccc(Oc2ccc(Nc3c4c(nc5ccccc35)-c3ccccc3C4)cc2)cc1 [Compound D275]
other
  melting point: 114 to 115 °C
[2]
  Killing / inhibition of the growth of SF 295 human glioblastoma cells (in words): effective
  IC50: 1420 nM

## c1nc(Nc2ccc(Oc3ccc(Nc4ncnc5[nH]cnc45)cc3)cc2)c2nc[nH]c2n1 [Compound D276]
other
  melting point: 372 °C
[2]
  IC50: > 5000 nM

## c1ccc2c(Nc3ccc(Oc4ccc(Nc5nccc6ccccc56)cc4)cc3)nccc2c1 [Compound D278]
other
  melting point: 110 to 112 °C
[2]
  IC50: > 5000 nM

## c1ccc2c(Nc3ccc(Oc4ccc(Nc5ncnc6ccccc56)cc4)cc3)ncnc2c1 [Compound D281]
other
  melting point: 124 to 125 °C
[2]
  IC50: > 5000 nM

## c1ccc2c(Nc3ccc(Oc4ccc(Nc5cnnc6ccccc56)cc4)cc3)cnnc2c1 [Compound D284]
other
  melting point: 362 °C
[2]
  IC50: > 5000 nM

## Cc1cc(Nc2ccc(Oc3ccc(Nc4cc(C)nc5ccccc45)cc3)cc2)c2ccccc2n1 [Compound D288]
[2]
  Killing / inhibition of the growth of SF 295 human glioblastoma cells (in words): effective
  IC50: 85 nM
[3]
  Values of MTD40: 25 mg/kg

## c1ccc2c(Nc3ccc(Oc4ccc(Nc5c6ccccc6nc6ccccc56)cc4)cc3)c3ccccc3nc2c1 [D11Bx2AH 1, D11B digluconate]
[4]; digluconate (1) in DMSO, 22 mg/ml
  State of the stock solution: clear
[4]; digluconate (1) in DMSO, 31 mg/ml
  State of the stock solution: clear
[4]; digluconate (1) in H2O—DMSO 0.3 mg/ml, stock 22 mg/ml, DMSO 1.50 wt. %
  State of the injection solution: clear
[4]; digluconate (1) in H2O—DMSO 0.3 mg/ml, stock 31 mg/ml, DMSO 1.06 wt. %
  State of the injection solution: clear
[5]; D11Bx2AH salts, DMSO, listed as 1
  Solubility (mg/ml), 25° C.: 31 mg/mL
[5]; D11Bx2AH salts, PEG-400, samples were dissolved at 100° C., listed as 1
  Solubility (mg/ml), 25° C.: >10 mg/mL
[5]; EtOH, 25 °C, organic solvent or mixture, D11Bx2AH salts, EtOH, read-out: Solubility (mg/ml), 25° C.
  solubility: > 1 mg/mL
[5]; PEG-400, organic solvent or mixture, PEG-400 (Table 16), heating to 100° C. was required, read-out: Solubility
  solubility: > 10 mg/mL
[5]; buffer, 25 °C, pH 4, aqueous buffer, D11Bx2AH salts, Buffer (pH = 4), even at 100° C., read-out: Solubility (mg/ml), 25° C.
  solubility: > 0.5 mg/mL
[5]; buffer, 25 °C, pH 6, aqueous buffer, D11Bx2AH salts, Buffer (pH = 6), even at 100° C., read-out: Solubility (mg/ml), 25° C.
  solubility: > 0.5 mg/mL

## c1ccc2c(Nc3ccc(Oc4ccc(Nc5c6ccccc6nc6ccccc56)cc4)cc3)c3ccccc3nc2c1 [D11Bx2AH 4, D11B dilactabionate]
[4]; dilactobionate (4) in DMSO, 20 mg/ml
  State of the stock solution: clear
[4]; dilactobionate (4) in DMSO, 40 mg/ml
  State of the stock solution: clear
[4]; dilactobionate (4) in H2O—DMSO 0.3 mg/ml, stock 20 mg/ml, DMSO 1.36 wt. %
  State of the injection solution: clear
[4]; dilactobionate (4) in H2O—DMSO 0.3 mg/ml, stock 40 mg/ml, DMSO 0.68 wt. %
  State of the injection solution: clear
[5]; D11Bx2AH salts, DMSO, listed as 4
  Solubility (mg/ml), 25° C.: 40 mg/mL
[5]; D11Bx2AH salts, PEG-400, samples were dissolved at 100° C., listed as 4
  Solubility (mg/ml), 25° C.: >10 mg/mL
[5]; PEG-400 (Table 16), heating to 100° C. was required, listed as dilactabionate (4)
  Solubility (mg/ml): >10^ mg/ml

## c1ccc2c(Nc3ccc(Oc4ccc(Nc5c6ccccc6nc6ccccc56)cc4)cc3)c3ccccc3nc2c1 [D11Bx2AH 6, D11B digallate]
[4]; digalate (6) in DMSO, 20 mg/ml
  State of the stock solution: clear
[4]; digalate (6) in DMSO, 39.9 mg/ml
  State of the stock solution: clear
[4]; digalate (6) in DMSO, 77 mg/ml
  State of the stock solution: clear
[4]; digalate (6) in DMSO, 158 mg/ml
  State of the stock solution: clear
[4]; digalate (6) in DMSO, 325 mg/ml
  State of the stock solution: clear
[4]; digalate (6) in H2O—DMSO 0.3 mg/ml, stock 20 mg/ml, DMSO 1.65 wt. %
  State of the injection solution: clear
[4]; digalate (6) in H2O—DMSO 0.3 mg/ml, stock 39.9 mg/ml, DMSO 0.83 wt. %
  State of the injection solution: clear
[4]; digalate (6) in H2O—DMSO 0.3 mg/ml, stock 325 mg/ml, DMSO 0.1 wt. %
  State of the injection solution: prec.
[5]; D11Bx2AH salts, DMSO, listed as 6
  Solubility (mg/ml), 25° C.: 325 mg/mL
[5]; PEG-400 (Table 16), heating to 100° C. was required, listed as digallate (6)
  Solubility (mg/ml): 20^a mg/ml
[5]; PEG-400, 25 °C, organic solvent or mixture, D11Bx2AH salts, PEG-400, samples were dissolved at 100° C., read-out: Solubility (mg/ml), 25° C.
  solubility: 20 mg/mL

## c1ccc2c(Nc3ccc(Oc4ccc(Nc5c6ccccc6nc6ccccc56)cc4)cc3)c3ccccc3nc2c1 [D11Bx2AH 7, D11B bis(3,4-dihydroxyphenylacetate)]
[4]; bis(3,4-dihydroxyphenylacetate) (7) in DMSO, 66 mg/ml
  State of the stock solution: clear
[4]; bis(3,4-dihydroxyphenylacetate) (7) in H2O—DMSO 0.3 mg/ml, DMSO 0.5 wt. %
  State of the injection solution: clear
[5]; D11Bx2AH salts, DMSO, listed as 7
  Solubility (mg/ml), 25° C.: 66 mg/mL
